Laboratory results: PMC11355573, “A New Renieramycin T Right-Half Analog as a Small Molecule Degrader of STAT3” (Marine Drugs, 2024)
Read-outs that look alike come from different tables or passages of the source. Residues, ends and D or L forms follow the SMILES beside them. *: point of attachment. Cbz = O=C(OCc1ccccc1)*

Experiments:
[1] = test system: BEAS-2B cells; test: MTT assay in non-tumorigenic bronchial epithelial cells (selectivity); type: cell-based; settings: Homo sapiens, 24 h, read-out: BEAS-2B IC50 ± SD
Protocol: (§1) NSCLCs H292 and H460 were treated with various concentrations of derivatives of the RT right-half analog for 24 h. […] However, the IC50 values for DH_17, DH_20, DH_23, and DH_26 in H460 cells were greater than 100 μM. TM-(−)-18 was identified as a potent compound in a previous study. The structure of TM-(−)-18 was present in Figure 1A. […] To assess the selectivity of DH_28, DH_30, DH_31, and TM-(−)-18 in lung cancer cells, non-tumorigenic epithelial cell lines derived from human bronchial epithelial cells (BEAS-2B) were treated with DH_28, DH_30, DH_31, and TM-(−)-18 at various concentrations for 24 h.
Figure 2 The effect of RT right-half analogs on cytotoxicity in NSCLC and human normal lung epithelial (BEAS-2B) cell lines and apoptotic cell death in NSCLC cells. (A) NSCLC H292 and H460 cells were treated with derivatives of RT right-half analogs for 24 h and analyzed using MTT assay to assess cytotoxicity. (B) IC50 values for H292 and H460 cell lines were calculated. (C) BEAS-2B cells were treated with DH_28, DH_30, DH_31, and TM-(−)-18 for 24 h. The cytotoxic effects were evaluated using an MTT assay, and the IC50 values for BEAS-2B cells were determined. (D) H292 and H460 cells were seeded and treated with 0–10 μM of DH_28, DH_30, and DH_31 for 24 h. Hoechst 33342 and PI were used to stain the cell nuclei. Images were obtained under a fluorescence microscope. (E) The percentages of cell death were calculated based on the stained images in H292 and H460 cells. […] TEXT PRINTED IN THE PICTURE: (B) DH_17: IC50 ± SD (μM) H292: 20.50 ± 3.69; IC50 ± SD (μM) H460: > 100 | (B) DH_20: IC50 ± SD (μM) H292: 21.46 ± 3.77; IC50 ± SD (μM) H460: > 100 | (B) DH_23: IC50 ± SD (μM) H292: 17.50 ± 3.08; IC50 ± SD (μM) H460: > 100 | (B) DH_26: IC50 ± SD (μM) H292: 7.18 ± 2.39; IC50 ± SD (μM) H460: > 100 | (B) DH_28: IC50 ± SD (μM) H292: 9.56 ± 1.87; IC50 ± SD (μM) H460: 11.48 ± 1.87 | (B) DH_30: IC50 ± SD (μM) H292: 7.80 ± 2.30; IC50 ± SD (μM) H460: 4.51 ± 0.78 | (B) DH_31: IC50 ± SD (μM) H292: 5.54 ± 1.04; IC50 ± SD (μM) H460: 2.90 ± 0.58 | (B) TM-(–)-18: IC50 ± SD (μM) H292: > 100; IC50 ± SD (μM) H460: 7.89 ± 1.27 | (C) DH_28: BEAS-2B IC50 ± SD (μM): 16.46 ± 2.11 | (C) DH_30: BEAS-2B IC50 ± SD (μM): 5.50 ± 1.70 | (C) DH_31: BEAS-2B IC50 ± SD (μM): 6.51 ± 1.40 | (C) TM-(–)-18: BEAS-2B IC50 ± SD (μM): 7.25 ± 1.25 DOUBTS OF THE COPYIST ABOUT THIS PICTURE: Panel C, DH_28, IC50: small print, 16.46 ± 2.11 is the best reading; 6 could be 8 / Panel C, DH_30, IC50: small print, 5.50 ± 1.70 is the best reading; 5 could be 6 / Panel C, DH_31, IC50: small print, 6.51 ± 1.40 is the best reading; 6 could be 8 or 5 / Panel C, TM-(–)-18, IC50: small print, 7.25 ± 1.25 is the best reading

[2] = test system: H292 cells; test: MTT cell viability assay (cytotoxicity); type: cell-based, human; settings: read-out: IC50 ± SD H292
Protocol: as §1
(§2) MTT assay was conducted to ascertain cell viability in the presence of DH_17, DH_20, DH_23, DH_26, DH_28, DH_30, DH_31, or TM-(–)-18. H292 and H460 cells (1.0 × 10^4 cells per well) were seeded in 96-well plates. Following overnight incubation, the cells were treated with different concentrations of RT right–half analogs (0–100 μM) for 24 h at 37 °C. Subsequently, cell viability was assessed using MTT assay, following the manufacturers’ protocols. The optical density was measured at 570 nm using a CLARIOStar microplate reader (BMG Labtech, Ortenberg, Germany).

[3] = test system: H460 cells; test: MTT cell viability assay (cytotoxicity); type: cell-based, human; settings: read-out: IC50 ± SD H460
Protocol: as §1, §2

[4] = test system: H292 cells; type: cell-based; settings: H292, 10 µM; for apoptosis: 24 h; for necrosis: 24 h (p < 0.001)
Protocol: (§3) Apoptosis is a crucial mechanism of cell death induced by anticancer drugs. We further analyzed the apoptosis induction effect of the potent small molecules, namely DH_28, DH_30, and DH_31. Nuclear morphology detected by the staining with nucleus-specific fluorescence dye Hoechst 33342 and cell-impermeable PI for necrotic detection was performed. Morphologic changes by means of condensed and/or fragmented nuclei were observed after 24 h of treatment (Figure 2D). […] Therefore, DH_31 was selected for further experiments.
(§4) Figure 2 The effect of RT right-half analogs on cytotoxicity in NSCLC and human normal lung epithelial (BEAS-2B) cell lines and apoptotic cell death in NSCLC cells. (A) NSCLC H292 and H460 cells were treated with derivatives of RT right-half analogs for 24 h and analyzed using MTT assay to assess cytotoxicity. (B) IC50 values for H292 and H460 cell lines were calculated. (C) BEAS-2B cells were treated with DH_28, DH_30, DH_31, and TM-(−)-18 for 24 h. The cytotoxic effects were evaluated using an MTT assay, and the IC50 values for BEAS-2B cells were determined. (D) H292 and H460 cells were seeded and treated with 0–10 μM of DH_28, DH_30, and DH_31 for 24 h. Hoechst 33342 and PI were used to stain the cell nuclei. Images were obtained under a fluorescence microscope. (E) The percentages of cell death were calculated based on the stained images in H292 and H460 cells. Data represent the mean ± SD (n = 3). *, **, and *** indicate a statistically significant difference between the treated and the untreated cells at p < 0.05, p < 0.01, and p < 0.001, respectively. TEXT PRINTED IN THE PICTURE: (B) DH_17: IC50 ± SD (μM) H292: 20.50 ± 3.69; IC50 ± SD (μM) H460: > 100 | (B) DH_20: IC50 ± SD (μM) H292: 21.46 ± 3.77; IC50 ± SD (μM) H460: > 100 | (B) DH_23: IC50 ± SD (μM) H292: 17.50 ± 3.08; IC50 ± SD (μM) H460: > 100 | (B) DH_26: IC50 ± SD (μM) H292: 7.18 ± 2.39; IC50 ± SD (μM) H460: > 100 | (B) DH_28: IC50 ± SD (μM) H292: 9.56 ± 1.87; IC50 ± SD (μM) H460: 11.48 ± 1.87 | (B) DH_30: IC50 ± SD (μM) H292: 7.80 ± 2.30; IC50 ± SD (μM) H460: 4.51 ± 0.78 | (B) DH_31: IC50 ± SD (μM) H292: 5.54 ± 1.04; IC50 ± SD (μM) H460: 2.90 ± 0.58 | (B) TM-(–)-18: IC50 ± SD (μM) H292: > 100; IC50 ± SD (μM) H460: 7.89 ± 1.27 | (C) DH_28: BEAS-2B IC50 ± SD (μM): 16.46 ± 2.11 | (C) DH_30: BEAS-2B IC50 ± SD (μM): 5.50 ± 1.70 | (C) DH_31: BEAS-2B IC50 ± SD (μM): 6.51 ± 1.40 | (C) TM-(–)-18: BEAS-2B IC50 ± SD (μM): 7.25 ± 1.25 DOUBTS OF THE COPYIST ABOUT THIS PICTURE: Panel C, DH_28, IC50: small print, 16.46 ± 2.11 is the best reading; 6 could be 8 / Panel C, DH_30, IC50: small print, 5.50 ± 1.70 is the best reading; 5 could be 6 / Panel C, DH_31, IC50: small print, 6.51 ± 1.40 is the best reading; 6 could be 8 or 5 / Panel C, TM-(–)-18, IC50: small print, 7.25 ± 1.25 is the best reading

[5] = test system: H460 cells; type: cell-based; settings: H460, 10 µM, 24 h
Protocol: as §3, §4

[6] = biological target: T1, STAT3 (Homo sapiens, UniProt P40763); test: STAT3 proteasomal degradation, Western blot with or without MG132; type: cell-based
T1 construct: endogenous in cells; host or cells: NCI-H460 (ATCC HTB-177)
Protocol: To explore whether the reduction in total STAT3 protein after DH_31 treatments (as shown in Figure 5B–E) occurs at the mRNA or protein levels, we first investigated mRNA levels using Real-time qPCR. […] To evaluate whether DH_31 affects STAT3 stability, pretreatment with MG132, a potent selective proteasome inhibitor, was performed. H460 cells were pretreated with or without MG132 (10 μM) for 1 h and then cells were either treated with DH_31 for 6 h or left untreated. […] The proteasome can recognize and degrade protein targets that are conjugated by single or poly-ubiquitin molecules. To investigate the ubiquitination level of STAT3 with DH_31 treatments, the ubiquitination level was evaluated using immunoprecipitation and Western blot analysis of the STAT3–ubiquitin complex in the lung cancer cells treated with DH_31 and in untreated cells.
Immunoprecipitation assay was performed to investigate ubiquitin–proteasomal degradation, shedding light on the regulatory mechanisms involved. H460 cells (4.0 × 10^5 cells per well) were seeded in 6-well plates. Following overnight incubation, the cells were pretreated with 10 μM of a proteasome inhibitor, MG132, for 1 h to prevent proteasomal degradation, and then were treated with different concentrations of DH_31 (0–2.5 μM) for 6 h. After treatment, the cells were lysed as described above. Immunoprecipitation was carried out using the Dynabeads™ Protein G Immunoprecipitation kit, following the manufacturers’ protocols. The magnetic beads were coated with the rabbit anti-STAT3, then incubated with whole-cell lysate and mixed gently overnight at 4 °C. After washing, the supernatant containing the antibody–antigen complex was used to perform Western blot analysis to detect the ubiquitinated STAT3 protein.

[7] = test system: B16F10 cells; design: method as in PMID 36014573; settings: B16F10 cells induced by the RAW264.7 supernatant; cited from earlier work
[8] = design: method as in PMID 32260280; settings: concentration-dependent manner; cited from earlier work

T1 sequence (P40763 whole entry): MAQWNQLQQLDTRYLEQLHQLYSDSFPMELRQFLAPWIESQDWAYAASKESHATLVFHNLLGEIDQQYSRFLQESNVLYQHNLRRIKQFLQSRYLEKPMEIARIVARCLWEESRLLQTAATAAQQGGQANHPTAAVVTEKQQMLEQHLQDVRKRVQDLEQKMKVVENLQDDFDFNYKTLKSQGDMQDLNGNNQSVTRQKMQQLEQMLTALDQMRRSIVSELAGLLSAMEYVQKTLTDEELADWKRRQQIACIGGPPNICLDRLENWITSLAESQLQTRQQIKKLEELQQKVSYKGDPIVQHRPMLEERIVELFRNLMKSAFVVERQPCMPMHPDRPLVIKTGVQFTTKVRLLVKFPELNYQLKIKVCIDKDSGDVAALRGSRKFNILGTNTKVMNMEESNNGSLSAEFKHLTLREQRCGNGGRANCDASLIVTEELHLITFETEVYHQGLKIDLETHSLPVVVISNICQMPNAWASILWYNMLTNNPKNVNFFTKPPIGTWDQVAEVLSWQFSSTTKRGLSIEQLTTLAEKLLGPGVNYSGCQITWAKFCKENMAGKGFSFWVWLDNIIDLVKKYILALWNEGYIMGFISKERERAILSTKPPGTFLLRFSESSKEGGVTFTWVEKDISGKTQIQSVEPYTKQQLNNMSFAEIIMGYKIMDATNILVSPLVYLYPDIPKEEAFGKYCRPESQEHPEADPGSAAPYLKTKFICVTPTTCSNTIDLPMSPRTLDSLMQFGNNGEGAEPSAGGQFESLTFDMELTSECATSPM

| SMILES | IC50 [1] [µM] | IC50 ([2]; 24 h) [µM] | IC50 ([2]; Homo sapiens, NCI-H292, 24 h) [µM] | IC50 ([3]; Homo sapiens, NCI-H460, 24 h) [µM] | apoptosis [4] | necrosis [4] | apoptotic cell death [5] | necrosis [5] | also measured |
| --- | --- | --- | --- | --- | --- | --- | --- | --- | --- |
| COc1c(C)cc2c(c1O)[C@@H]1CN(Cc3cccc4ccccc34)[C@@H](C#N)[C@H](C2)N1C [DH_28, (1R,4R,5S)-10-hydroxy-9-methoxy-8,11-dimethyl-3-(naphthalen-1-ylmethyl)-1,2,3,4,5,6-hexahydro-1,5-epiminobenzo[d]azocine-4-carbonitrile] | 16.5 ± 2.11 | < 15 | 9.56 ± 1.87 | 11.5 ± 1.87 | significant apoptosis | Necrosis was detected | significant apoptotic cell death | significant necrosis | IC50 ([3]; 24 h): < 15 µM |
| COc1c(C)cc2c(c1OCc1ccccc1)[C@@H]1CN(Cc3ccc4ccccc4c3)[C@@H](C#N)[C@H](C2)N1C [DH_30, (1R,4R,5S)-10-(benzyloxy)-9-methoxy-8,11-dimethyl-3-(naphthalen-2-ylmethyl)-1,2,3,4,5,6-hexahydro-1,5-epiminobenzo[d]azocine-4-carbonitrile] | 5.5 ± 1.7 | < 15 | 7.8 ± 2.3 |  | significant apoptosis | Necrosis was detected | significant apoptotic cell death | significant necrosis |  |
| CC(C)C[C@@H](C=O)NC(=O)[C@H](CC(C)C)NC(=O)[C@H](CC(C)C)NC(=O)OCc1ccccc1 [MG132] (Cbz-Leu-Leu-Leu-aldehyde) |  |  |  |  |  |  |  |  | effect on DH_31-induced STAT3 downregulation ([6]; H460, MG132 10 μM 1 h pretreatment, then DH_31 0, 1, 2.5 µM 6 h): significantly reversed; STAT3 level ([6]; H460, MG132 10 μM pretreatment, all DH_31 concentrations): drastically increased |
| CC=C(C)C(=O)OCC1c2c(c(O)c(C)c3c2OCO3)CC2C3C4=C(CC(C(C#N)N12)N3C)C(=O)C(C)=C(OC)C4=O (stereo not shown) [RT, Renieramycin T] |  |  |  |  |  |  |  |  | STAT3 expression [7]: reduced; Twist, Snail, Vimentin, and N-cadherin expression [7]: reduced; migration ability [7]: reduced |
| COc1c(C)cc2c(c1O)C1CN(Cc3ccccc3)C(C#N)C(C2)N1C (stereo not drawn) [TM-(−)-18, reference compound] | 7.25 ± 1.25 |  | > 100 | 7.89 ± 1.27 |  |  |  |  | apoptosis [8]: increased |
